Data on 5 sequences can be found in patent US20040023884A1, “Biologically active peptides from functional domains of bactericidal/permeability-increasing protein and uses thereof” (priority 1993, published 2004).

For test [1], the system named is E. coli 0111:B4 (smooth) bacteria. In words: Radial diffusion bactericidal assay, E. coli 0111:B4. Type of test: cell-based. The conditions noted are these: radial diffusion; for pmol added to well to achieve a 30 mm^2 bactericidal zone, E. coli O111:B4: PROBIT analysis, E. coli O111:B4 (smooth); for bactericidal activity (in words): E. coli 0111:B4.
The subject of another test is Staphylococcus aureus. In words: Radial diffusion bactericidal assay, Staphylococcus aureus. The conditions noted are these: radial diffusion; PROBIT analysis; S. aureus. The format is cell-based.
Test [2] concerns multi-resistant strain E. coli 19536. In words: Radial diffusion bactericidal assay, multi-antibiotic resistant E. coli 19536. Type of test: cell-based. The protocol:
(§1) These studies were conducted substantially following the procedures used in Example 2.
In order to test the bactericidal activity of BPI peptides against multi-antibiotic resistant E. coli, a multi-resistant strain E. coli 19536 (ampR 16 μg/mL; ceftazidimeR>16 μg/mL; ceftriazoneR>16 μg/mL) was tested. This strain is a clinical isolate obtained from the Baxter Microscan® library (Sacramento, Calif.). An overnight culture of E. coli 19536 was tested as described in Example 2 and part A above. Test BPI peptides were 2-fold serially diluted in D-PBS starting at about 1 mg/mL.

The subject of test [3] is rough mutant E. coli J5 bacteria. In words: Radial diffusion bactericidal assay, E. coli J5. The format is cell-based. The conditions noted are these: radial diffusion; for pmol added to well to achieve a 30 mm^2 bactericidal zone, E. coli J5: PROBIT analysis, E. coli J5 (rough); for bactericidal activity (in words): E. coli J5. The method in brief:
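Log-phase bacteria, washed in 10 mM sodium phosphate pH 7.4, were seeded at 4×10^6 CFU/mL in underlayer agarose. BPI fragments (5 or 10 μL) went into 3 mm wells for 3 h at 37° C., then overlayer agarose was added. After overnight 37° C. incubation, clearing zones were measured by micrometer.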

Test [4] in a line: 3H-heparin binding assay (affinity and capacity). The settings on record: for Heparin Capacity: heparin bound at saturation; for Kd: read-out: Heparin Affinity. The method in brief: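 Bound 3H-heparin was counted by liquid scintillation after 1 h incubation at 4 °C with fragments immobilised on PVDF-bottomed wells, then washing in blocking buffer. Signal was corrected for BSA-related background, and varying amounts of rBPI23 were used as positive control.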

The next test deals with RAW 264.7 cells. In words: LPS neutralization cellular proliferation assay, RAW 264.7 cells. Type of test: cell-based, mouse. The method in brief: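 Mouse RAW 264.7 cells were primed 24 h with 50U/mL mouse γ-interferon, then exposed about 15 h to E. coli O113 LPS in serum-free RPMI with or without BPI peptides at 25 ng/mL–50 μg/mL. Proliferation was quantified by [^3H]-thymidine uptake, 1 μCi/well, added at 5 h.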

The next test has as its system C. albicans. In words: Radial diffusion fungicidal assay, Candida albicans. Type of test: cell-based. The settings on record: radial diffusion.
The test system of test [5] is Klebsiella pneumoniae 19645. In words: Radial diffusion bactericidal assay, antibiotic resistant Klebsiella pneumoniae 19645. Type of test: cell-based. As for the experimental part:
as §1
In order to test the bactericidal activity of BPI peptides on antibiotic resistant strains of Klebsiella pneumoniae, the multi-resistant clinically isolated strain 19645 was tested as in Example 2 and above. […] This strain was obtained from the Baxter Microscan® library (Sacramento, Calif.). An overnight culture of Klebsiella pneumoniae 19645 and a non-resistant strain (ATCC 29011) were diluted 1:50 into fresh tryptic soy broth and incubated for 3 hours at 37° C. to attain log phase. The overnight cultures were tested as described in Example 2 and part A above.

The next test has as its system E. coli J5 (rough). In words: Broth antibacterial assay, E. coli J5. The format is cell-based. The protocol: (§2) In additional experiments, broth antibacterial assays were conducted to further determine the bactericidal activity of certain of the BPI peptides. Specifically, either E. coli J5 (rough) or E. coli 0111:B4 (smooth) bacteria were selected from single colonies on agar plates and used to inoculate 5 mL of Mueller Hinton broth and incubated overnight at 37° C. with shaking. The overnight culture was diluted (˜1:50) into 5 mL fresh broth and incubated at 37° C. to log phase (˜3 hours). Bacteria were pelleted for 5 minutes at 3000 rpm (1500×g). Bacterial pellets were resuspended in 5 mL PBS and diluted to 2×10^6 cells/mL in the Mueller Hinton broth (wherein 1 OD570 unit equals 1.25×10^9 CFU/mL). The BPI functional domain peptides to be tested were diluted to 200 μg/mL in broth and serially diluted 2-fold in 96 well culture plates (100 μL volume). All items were at 2-fold final concentration and experiments were conducted in triplicate. Bacteria were added at 100 μL/well and the plates were incubated on a shaker at 37° C. for a 20 hour period. The plates were then read on an ELISA plate multiple reader at 590 nm. One of the triplicate wells from each peptide concentration was selected for colony forming unit (CFU) determination. A 30 μL aliquot was added to 270 μL of PBS and further ten-fold serial dilutions were performed. Then a 50 μL aliquot was plated on tryptic soy agar and incubated overnight. Colonies were counted and final bacterial concentrations determined. The results of these assays are depicted in FIGS. 9e (for E. coli J5) and 9f (for E. coli 0111:B4).

Another test has as its system E. coli 0111:B4 (smooth). In words: Broth antibacterial assay, E. coli 0111:B4. Type of test: cell-based. As for the experimental part:
as §2

Test [6] is described as follows: LPS binding by tryptophan fluorescence quenching. The source says:
(§3) The naturally-occurring amino acid tryptophan can emit light (i.e., it fluoresces) having a wavelength between 300 and 400 nm after excitation with light having a wavelength of between about 280 nm and 290 nm, preferably 285 nm. The amount of emitted light produced by such fluorescence is known to be affected by the local environment, including pH and buffer conditions, as well as binding interactions between proteins and other molecules. Some BPI functional domain peptides derived from domains II and III contain tryptophan residues, and tryptophan fluorescence was used to assay binding interactions between the BPI functional domain peptides of the invention and LPS or heparin.
(§4) Tryptophan fluorescence of the BPI functional domain peptides of the invention was determined in the presence or absence of LPS or heparin using a SPEX Fluorolog fluorimeter. Samples were excited with 285 nm light using a 0.25 nm slitwidth. Emission wavelengths were scanned between 300-400 nm using a 1.25 nm slitwidth. Data were accumulated as the average of three determinations performed over an approximately 5 min time span. Samples were maintained at 25° C. or 37° C. during the course of the experiments using a circulating water bath. Crab endotoxin binding protein (CEBP), a protein wherein the intrinsic fluorescence of tryptophan residues is affected by binding to LPS, was used as a positive control. (See Wainwright et al., 1990, Cellular and Molecular Aspects of Endotoxin Reactions, Nowotny et al., eds., Elsevier Science Publishing B.V., The Netherlands, pp. 315-325).
(§5) Kd values were determined by Scatchard-type Stern-Volmer plots of the quenching data as the negative inverse of the slope of such plots. Comparing the data for BPI.10, BPI.46 and BPI.47, it is seen that as the Kd decreased (indicating an increase in avidity for LPS), the percent fluorescence quenching increased. The differences between these peptides include replacement of basic and polar amino acid residues with non-polar residues in […] as compared with BPI.10. In contrast, as the Kd of heparin binding decreased, a corresponding increase in the percentage of fluorescence quenching was not detected.

A short description of test [7]: Heparin binding by tryptophan fluorescence quenching.
Source text: as §3, §4, §5

Ends that are not written are not given here.

As to IKISGKWKAFFRFLK [BPI.88], the “pmol added to well to achieve a 30 mm^2 bactericidal zone, E. coli O111:B4” value (“pmol added to well … E. coli O111:B4” for short) in [1] was 540.15 pmol. Also, the “pmol added to well to achieve a 30 mm^2 bactericidal zone, S. aureus” value (from here on “pmol added to well … S. aureus”) with Staphylococcus aureus is on record as 9,051.04 pmol. Further, the “bactericidal activity (in words)” value in [2] is given as “activity against multi-antibiotic resistant E. coli”. In addition, the “pmol added to well to achieve a 30 mm^2 bactericidal zone, E. coli J5” value (shortened to “pmol added to well … E. coli J5”) in [3] is reported as 70.32 pmol. Further, in [4], the “Heparin Capacity” value is 352.8 ng and the Kd came to 1630 nM. Moreover, in the test with RAW 264.7 cells, the “EC50 (peptide concentration at which the growth inhibitory effect of LPS was reversed by 50%)” value was above 50 µg/mL and the “IC50 (peptide concentration at which RAW cell growth was inhibited by 50%)” value amounted to 6.2 ± 7.5 µg/mL.
On to IKISGKWKAQKRFLKKSKVGWLIQLFHKK [BPI.63], for which the “pmol added to well … E. coli O111:B4” value in test [1] worked out at 511.61 pmol. Also, in the test on Staphylococcus aureus, the “pmol added to well … S. aureus” value is listed as 2,101.84 pmol. Also, the “bactericidal activity (in words)” value in test [2] is given as “activity against multi-antibiotic resistant E. coli”. In addition, in test [3], the “bactericidal activity (in words)” value is listed as “highly bactericidal” and the “pmol added to well … E. coli J5” value is reported as 86.94 pmol. Moreover, the “C. albicans: pmol required for 30 mm^2 zone” value with C. albicans is above 1006.34 pmol. Also, in test [4], the “heparin binding capacity (in words)” value was “extremely high heparin capacity”, the “Heparin Capacity” value came out at 305.1 ng and the Kd is 600 nM. Further, in the test on RAW 264.7 cells, the “EC50 (peptide concentration at which the growth inhibitory effect of LPS was reversed by 50%)” value is 0.08 ± 0.02 µg/mL and the “IC50 (peptide concentration at which RAW cell growth was inhibited by 50%)” value came to 7.1 ± 0.02 µg/mL. The “bactericidal activity (in words)” value in test [5] was “active against antibiotic resistant Klebsiella”.
Regarding KRFLKKWKAQKRFLK [BPI.9], the “bactericidal activity (in words)” value with E. coli J5 (rough) was “significant bactericidal activity”. The “bactericidal activity (in words)” value in the test with E. coli 0111:B4 (smooth) is on record as “significant bactericidal activity”. Further, in test [1], the “bactericidal activity (in words)” value is recorded as “exhibited bactericidal activity” and the “pmol added to well … E. coli O111:B4” value is 5,337.50 pmol. Further, in [3], the “bactericidal activity (in words)” value is listed as “exhibited bactericidal activity” and the “pmol added to well … E. coli J5” value amounted to 476.60 pmol. Further, in test [4], the “Heparin Capacity” value was 212.5 ng and the Kd came to 1140 nM.
For KWKAAARFLKKWKAAARFLKKWKAAARFLK [BPI.69], the “pmol added to well … E. coli O111:B4” value in test [1] stood at 244.07 pmol. For the same sequence, the “Quenching LPS” value in test [6] amounted to 72%. Moreover, the Kd in test [6] (Stern-Volmer plots) is 58 nM. For the same sequence, the “pmol added to well … S. aureus” value with Staphylococcus aureus was 1,057.56 pmol. Also, the “bactericidal activity (in words)” value in [2] is “activity against multi-antibiotic resistant E. coli”. Also, in test [3], the “bactericidal activity (in words)” value is listed as “highly bactericidal” and the “pmol added to well … E. coli J5” value turned out to be 56.68 pmol. Further, the “Quenching Heparin” value in [7] worked out at 42%. The same sequence displayed a Kd in test [7] (Stern-Volmer plots) of 400 nM. For the same sequence, in test [4], the “heparin binding capacity (in words)” value was “extremely high heparin capacity”, the “Heparin Capacity” value is reported as 450.8 ng and the Kd is 967 nM. In the test on RAW 264.7 cells, the “EC50 (peptide concentration at which the growth inhibitory effect of LPS was reversed by 50%)” value amounted to 0.11 ± 0.07 µg/mL and the “IC50 (peptide concentration at which RAW cell growth was inhibited by 50%)” value is 2.4 ± 0.3 µg/mL. Besides, the “bactericidal activity (in words)” value in test [5] is recorded as “active against antibiotic resistant Klebsiella”.
As for QKRFLKKWKAQKRFLKKWKAQKRFLK [BPI.10.2], the “bactericidal activity (in words)” value in the test on E. coli J5 (rough) is listed as “significant bactericidal activity”; in the test with E. coli 0111:B4 (smooth), “significant bactericidal activity”; in [1], “exhibited bactericidal activity”; in [3] it was “exhibited bactericidal activity”.
